The results in this text go back to PubChem BioAssay AID588407 (The Scripps Research Institute Molecular Screening Center, 2011).

pEC50: −log10 of the molar value. Calls of active or inactive are those of the source. No rule for the calls is given here. Where only a bound is given, the exact number is not on record here.

This experiment deals with Mu-type opioid receptor (Homo sapiens) + Delta-type opioid receptor (Homo sapiens) (UniProt P35372+P41143). Nature of the experiment: OPRM1-OPRD1 heterodimer agonist potency – cell-based, luminescence, dose response (AID 588407).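 Also: potency of agonists raising the heterodimer signal.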 The following applies: cells, MOR-DOR heterodimerization.
Chain of Mu-type opioid receptor (Homo sapiens) + Delta-type opioid receptor (Homo sapiens) (P35372 whole entry, looked up): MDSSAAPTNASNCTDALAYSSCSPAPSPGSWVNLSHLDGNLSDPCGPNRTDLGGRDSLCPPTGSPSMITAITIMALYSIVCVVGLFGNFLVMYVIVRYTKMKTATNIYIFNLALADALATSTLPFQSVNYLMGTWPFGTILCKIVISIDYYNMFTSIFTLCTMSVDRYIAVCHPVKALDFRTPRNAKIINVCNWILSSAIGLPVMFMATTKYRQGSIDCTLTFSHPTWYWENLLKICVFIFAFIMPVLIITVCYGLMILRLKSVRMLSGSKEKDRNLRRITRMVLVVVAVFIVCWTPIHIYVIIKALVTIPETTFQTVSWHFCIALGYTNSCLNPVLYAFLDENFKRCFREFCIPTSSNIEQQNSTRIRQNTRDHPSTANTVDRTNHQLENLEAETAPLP
Chain of Mu-type opioid receptor (Homo sapiens) + Delta-type opioid receptor (Homo sapiens) (P41143 whole entry, looked up): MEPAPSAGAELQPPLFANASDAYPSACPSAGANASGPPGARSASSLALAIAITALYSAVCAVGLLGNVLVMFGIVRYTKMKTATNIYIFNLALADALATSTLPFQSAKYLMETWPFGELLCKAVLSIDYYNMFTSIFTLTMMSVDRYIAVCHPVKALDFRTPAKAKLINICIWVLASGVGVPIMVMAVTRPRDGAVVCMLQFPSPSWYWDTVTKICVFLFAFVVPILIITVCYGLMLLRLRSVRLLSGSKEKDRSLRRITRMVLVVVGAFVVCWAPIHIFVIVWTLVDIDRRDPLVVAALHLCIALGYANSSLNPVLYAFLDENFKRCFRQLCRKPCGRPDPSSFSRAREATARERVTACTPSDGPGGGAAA
A word on the EC50: it is the concentration giving half of the maximal effect. On to `COc1ccc(C(CNC(=O)C(C)c2ccc3cc(OC)ccc3c2)N(C)C)cc1` (centres undefined), for which the EC50 result was “inactive”.
As usually defined, the pEC50 is the EC50 on a negative log10 scale, so that one unit is a factor of ten. As to `Cc1ccc(C)c(NC(=S)NCC(c2ccccc2)N(C)C)c1` (centres undefined), the pEC50 is 6.27.
Take `CCCc1nc2c(=O)n(C)c(=O)nc-2n(C)n1`: the EC50 is > 92.5 µM (inactive).
Still for that read-out and setting: the same measure for `Cc1occc1C(=O)N/N=C/c1ccc(-c2ccccc2)cc1`: > 92.4 µM (inactive).
`COC(=O)NCC(c1ccc2c(c1)OCO2)N1CCN(c2ccccc2)CC1` (centres undefined): the pEC50 was 5.90.
As for `CN(C)C(CNC(=O)c1ccc(Br)cc1)c1ccco1` (centres undefined), the EC50 result was “inactive”.
Take `CCOC(=O)C1(CCOC)CCN(Cc2ccccc2-c2ccco2)CC1`: the pEC50 is 5.50.
The same measure, in the same setting: to `CCOc1ccc(S(=O)(=O)Nc2cccc(C(=O)NCC(c3ccccc3)N(C)C)c2)cc1` (centres undefined) belongs 5.11.
For `COc1ccc(CN2CCc3c([nH]c4ccccc34)C2)c(OC)c1C`, the EC50 entry is “inactive”.
In the case of `COc1ccc2c(c1)C=C(CN1CCC(CO)(CCc3ccccc3)CC1)CO2`, the EC50 entry is “inactive”.
With `COc1ccc(-c2nn(-c3ccccc3C)cc2CNCc2cccnc2)cc1F`, the pEC50 is 5.11.
As for `COc1ccc(C(CNC(=O)c2cncc(Br)c2)N(C)C)cc1` (centres undefined), the pEC50 was 5.69.
Turning to `COc1ccccc1CN1CCN(C(CC(C)C)c2nnnn2Cc2cccs2)CC1` (centres undefined), the EC50 result is “inactive”.
On to `CCOC(=O)C1(CCCc2ccccc2)CCN(Cc2cnn(C)c2)CC1`, for which the pEC50 is 5.34.
For the compound `CSCCCNC(=O)c1ccc(OC2CCN(CCc3ccccc3)CC2)cc1`, the EC50 result is “inactive”.
`Cc1cc(=O)oc2cc(NC(=O)C3COc4ccccc4O3)ccc12` (centres undefined): the EC50 result was “inactive”.
On to `O=C(N[C@H]1C/C=C\C[C@H](CC(=O)N(CCO)Cc2ccccc2)C(=O)N[C@H](Cc2c[nH]c3ccccc23)COC1=O)OCC1c2ccccc2-c2ccccc21`, for which the EC50 entry is “inactive”.
Consider `CCNS(=O)(=O)c1ccc(NC(=O)Nc2ccc3c(c2)OCO3)cc1`, for which the pEC50 is 5.03.
For `CCOC(=O)c1c(C)[nH]c(C(=O)OCC(O)=C(C#N)c2nc3ccccc3[nH]2)c1C`, the EC50 was > 92.5 µM (inactive).
Turning to `COC(=O)C1=C(C)N(CCCC(=O)O)C(=O)NC1c1ccccc1OS(=O)(=O)c1ccccc1[N+](=O)[O-]` (centres undefined), the pEC50 was 5.06.
As for `COC(=O)CCCNC(=O)c1ccc(OC2CCN(CCc3ccccc3)CC2)cc1`, the EC50 entry is “inactive”.
The same measure, in the same setting: to `COc1ccc(-c2csc(N(CCCN(C)C)C(=O)c3cccs3)n2)cc1` belongs “inactive”.
Take `COc1ccc(-n2c3c(cc(C(=O)NNc4ccccc4C)c2=O)C(=O)CC(C)(C)C3)cc1`: the pEC50 is 5.59.
Turning to `CN(C)CCCN(C(=O)c1ccc(S(=O)(=O)N2CCc3ccccc3C2)cc1)c1nc2ccc(F)cc2s1`, the pEC50 is 5.90.
Take `CC1[C@H]2Cc3ccc(O)cc3[C@]1(C)CCN2C` (some centres undefined): the EC50 entry was “inactive”.
The same measure, in the same setting: to `CC(CC(=O)N(CCC1=CCCCC1)c1c(N)n(Cc2ccccc2)c(=O)[nH]c1=O)c1ccccc1` (centres undefined) belongs > 92.5 µM (inactive).
In the case of `CN(C)C(CNC(=S)Nc1ccccc1)c1cccnc1` (centres undefined), the pEC50 is 5.46.
On to `COc1ccc(NS(=O)(=O)c2ccc(O)c(NC(=O)c3cc4c(C)nn(-c5ccc(F)cc5)c4s3)c2)cc1`, for which the EC50 was > 92.5 µM (inactive).
As for `Cc1ccc(Cl)cc1NC(=O)CNCC(c1ccccc1)N(C)C` (centres undefined), the pEC50 is 5.01.
Take `Brc1ccc(NC2=Nc3ccccc3CC2)cc1`: the EC50 entry was “inactive”.
On to `Cc1ccc(C2(O)CN(c3ccccc3C)C3=[N+]2CCS3)cc1` (centres undefined), for which the pEC50 is 6.42.
The same measure, in the same setting: to `CCOC(=O)C1(CCOc2ccccc2)CCN(Cc2cccn2-c2cccnc2)CC1` belongs 5.78.
As to `O=C(Nc1ccccc1)c1ccc(NC2CCCCC2)c(S(=O)(=O)N2CCOCC2)c1`, the EC50 result was “inactive”.
In the case of `COC(=O)C(Cc1cccc(C)n1)(c1ccccc1)c1ccccc1`, the pEC50 is 5.41.
In the case of `CCN1CCN(S(=O)(=O)c2ccc(Cl)c(C(=O)N(CCc3ccccc3)Cc3ccccc3)c2)CC1`, the EC50 result is “inactive”.
As for `CN(C)C(CNC(=O)C1CC(=O)N(Cc2ccccc2)C1)c1ccccc1` (centres undefined), the EC50 entry was “inactive”.
Still for that read-out and setting: to `COc1cc(C(=O)OC(C)C(=O)NCC2CCCCC2)cc(NC(=O)c2ccco2)c1OC` (centres undefined) belongs > 92.5 µM (inactive).
The same measure, in the same setting: to `CN(C)C(CNC(=O)c1cc2ccccc2o1)c1ccco1` (centres undefined) belongs > 92.5 µM (inactive); to `Cc1ccccc1N(CC(=O)N/N=C/c1ccc(F)cc1)C(=O)c1ccccc1`, “inactive”.
On to `CCOC(=O)C1(CC2CCCCO2)CCN(Cc2cc(F)ccc2-n2cccn2)CC1` (centres undefined), for which the pEC50 is 5.06.
Same read-out and setting: the same measure for `CCN1CCN(c2ccc([N+](=O)[O-])c(Sc3nc4ccccc4[nH]3)c2)CC1`: 5.33.
`CCCCCCCCCCOC(=O)Cn1c(COc2ccccc2C)[n+](C)c2ccccc21`: the EC50 entry is “inactive”.
For `COCCN(C(=O)C1CC(=O)N(Cc2ccccc2)C1)c1nc(-c2ccc([N+](=O)[O-])cc2)cs1` (centres undefined), the pEC50 is 5.25.
Consider `Cc1cccc2cc(C(c3nnnn3Cc3ccccc3)N3CCN(C)CC3)c(=O)[nH]c12` (centres undefined), for which the EC50 entry was “inactive”.
Take `Cc1ccc(CSCC(=O)N/N=C/c2sccc2C)cc1`: the pEC50 is 5.22.
Still for that read-out and setting: to `OCC1(CCc2ccccc2)CCN(Cc2cccn2-c2cccnc2)CC1` belongs 5.33; to `CC(=O)Nc1ccc(CN2CCCC(C(=O)c3cccc(C(F)(F)F)c3)C2)cc1` (centres undefined), 5.03.
As for `Cc1ccc2nc(SC(C(=O)Nc3ccc(F)cc3)c3ccccc3)[nH]c2c1` (centres undefined), the EC50 was > 92.5 µM (inactive).
As for `Cc1ccc(-n2cc(CNC(C)c3cnn(C)c3)c(-c3ccc(F)cc3)n2)cc1` (centres undefined), the pEC50 is 6.82.
Take `O=C(COc1ccc(/C=N/NC(=O)c2cc3ccccc3o2)cc1Br)Nc1ccccc1`: the pEC50 is 5.01.
Regarding `CCc1ccc(NC(=O)Nc2ccc3c(c2)N(C)C(=O)CS3)cc1`, the pEC50 is 5.03.
For the compound `Cc1nc2nc(C)n(CCN3CCOCC3)c(=O)c2c(-c2cccc([N+](=O)[O-])c2)c1C(=O)CCCCCCCCCCN1CCC(c2ccccc2)(c2ccccc2)CC1`, the EC50 result is “inactive”.
As to `Cn1c(CN2CCN(c3cccc(Cl)c3)CC2)nc2ccccc21`, the pEC50 was 5.48.
With `Cc1ccc(C)c(-n2cc(CNC(C)Cn3cncn3)c(-c3ccccc3)n2)c1` (centres undefined), the EC50 result was “inactive”.
Still for that read-out and setting: the same measure for `Cc1c(CCOC(=O)c2ccccc2)sc[n+]1CC(=O)c1ccc(Br)cc1`: “inactive”; for `Nc1nonc1C(=O)NCCNCc1c(OCc2ccccc2F)ccc2ccccc12`: “inactive”; for `CN1CCN(c2ccc(NC(=O)c3ccc(-c4cccc([N+](=O)[O-])c4)o3)cc2)CC1`: “inactive”.
As for `CN(C)CCCN(C(=O)c1ccc(S(=O)(=O)N2CCc3ccccc3C2)cc1)c1nc2c(F)cc(F)cc2s1`, the pEC50 is 6.07.
As to `OC(CNCCC(c1ccccc1)c1ccccc1)COc1ccccc1` (centres undefined), the EC50 entry is “inactive”.
On the same count and under the same terms, the same measure for `CCOC(=O)C1(CC2CCCCO2)CCN(Cc2nc(-c3cccs3)oc2C)CC1` (centres undefined): “inactive”.
Still for that read-out and setting: the same measure for `O=C(NCCc1ccc(Cl)cc1)C1CCC(CNc2nc(=S)[nH]c3ccccc23)CC1` (centres undefined): > 92.5 µM (inactive).
Consider `CN(C)CCCN(C(=O)c1ccc(S(=O)(=O)N2CCCCCC2)cc1)c1nc2c(F)cc(F)cc2s1`, for which the pEC50 is 5.23.
For `Cc1cccc(OCCC(=O)NCC(c2ccccc2)N(C)C)c1` (centres undefined), the EC50 entry is “inactive”.
With `COc1ccc(C(CNc2ncnc3sc(C)c(C)c23)N(C)C)cc1` (centres undefined), the negative-log EC50 (pEC50) was 5.17.
Same read-out and setting: to `CCC(=O)OC(Cc1ccccc1)(c1ccccc1)[C@H](C)CN(C)C` (some centres undefined) belongs 5.00.
In the case of `COc1ccc(C(CNC(=O)CCOc2ccccc2)N(C)C)cc1` (centres undefined), the EC50 result is “inactive”.
Turning to `CCOC(=O)C1(c2ccccc2)CCN(CCC(=O)Nc2cccc(Br)c2)CC1`, the pEC50 was 5.06.
The same measure, in the same setting: the same measure for `CC(=O)NC(CC(=O)NCC(c1ccco1)N(C)C)c1ccccc1` (centres undefined): 5.97.
Still for that read-out and setting: the same measure for `COc1ccc(-c2nc(CN3CCC(C(=O)NC4CCCc5ccccc54)CC3)c(C)o2)cc1OC` (centres undefined): 5.72.
For `Cc1cc(Cl)ccc1OCC(=O)N[C@@H](Cc1ccccc1)c1nc2ccccc2[nH]1`, the EC50 entry is “inactive”.
Still for that read-out and setting: to `COc1ccc(C(C)NCCC(c2ccc(OC(C)C)cc2)c2ccccc2OC)cc1` (centres undefined) belongs “inactive”.
For `CN(C)C(CNC(C(=O)Nc1ccc([N+](=O)[O-])cc1Br)c1ccccc1)c1ccccc1` (centres undefined), the pEC50 was 5.01.
Regarding `Cc1ccc(CC(=O)NCC(c2ccco2)N(C)C)cc1C` (centres undefined), the pEC50 is 5.04.
Consider `Cc1ccccc1NC(=S)NCC(c1cccnc1)N(C)C` (centres undefined), for which the pEC50 was 5.81.
Regarding `Oc1ccc(Oc2ccc3c(C(F)(F)F)cc(C(F)(F)F)nc3n2)cc1`, the EC50 result is “inactive”.
Consider `CCC(=O)C(CCN1CCOCC1)(c1ccccc1)c1ccccc1`, for which the negative logarithm of the EC50 (pEC50) is 6.01.
For `COCC1CCN(Cc2cn(-c3ccccc3F)nc2-c2cc(C)sc2C)CC1`, the EC50 entry is “inactive”.
As for `Cc1ccc(NC(=O)c2ncn(CCCN[C@H](C)c3cccc4ccccc34)n2)cc1C`, the pEC50 was 5.01.
Same read-out and setting: to `COc1ccc(C(CNC(=O)CSc2ccccc2C)N(C)C)cc1` (centres undefined) belongs 5.34.
With `OC(CN1CCN(C(c2ccccc2)c2ccccc2)CC1)c1ccccc1` (centres undefined), the EC50 entry is “inactive”.
Consider `CCC(=O)OC1(c2cccc(C)c2)CC(C)N(C)CC1C` (centres undefined), for which the EC50 result is “inactive”.
On the same count and under the same terms, to `C/C(=N/Nc1ccnc2cc(Cl)ccc12)c1ccc(N)cc1` belongs “inactive”.
With `Cc1cc2[nH]c3c4ccccc4nc(C)c3c2cc1C`, the pEC50 was 5.12.
Turning to `COc1cc(NC(=O)c2cccc(C)c2)ccc1NC(=O)c1cc2ccccc2o1`, the EC50 entry is “inactive”.
For the compound `CN(C)C(CNC(=O)c1ccc(C(F)(F)F)cc1)c1ccco1` (centres undefined), the negative logarithm of the EC50 (pEC50) was 5.11.
The same measure, in the same setting: the same measure for `O=C1C=C(c2c(O)ccc3ccccc23)c2ccccc2C1=O`: 5.01.
As for `COc1cc(C2C(C#N)=C(N)N(c3sc4c(c3C#N)CCCC4)C3=C2C(=O)CC(C)(C)C3)cc(OC)c1OC` (centres undefined), the EC50 result is “inactive”.
On the same count and under the same terms, the same measure for `CCN(Cc1ccccc1)S(=O)(=O)c1ccc(C(=O)N(CCCN(C)C)c2nc3c(C)c(C)ccc3s2)cc1`: “inactive”.
Same read-out and setting: the same measure for `Cc1cc(N2CCN(C)CC2)ccc1NC(=O)c1ccc(-c2ccc(Cl)cc2)o1`: “inactive”.
